Laboratory results as given in patent publication US9988420B2, “Cytotoxic peptides and conjugates thereof” (priority 2013, dated 2018).
Starred links: 1 amine or outer side, 2 acyl side, 3 side chain; linkers in the order of their positions; H or OH if unused. Non-standard residues stand in square brackets, D forms with d. Residues, ends and D or L forms follow the SMILES beside them. *: point of attachment. Dolaproine = CO[C@@H]([C@@H]1CCCN1)[C@@H](C)C(=O)O; X1 = O=C([C@@H]1[C@H]2CC[C@H](C2)N1[*:1])[*:2]; Dil = CC[C@H](C)[C@H](NC)[C@@H](CC(=O)O)OC; X2 = CN1[C@@H]2CC[C@@H](C2)[C@H]1C(=O)*; Phe(ol) = N[C@H](CO)Cc1ccccc1

Assays:
Assay in all cases: In vitro cell killing assay of payloads (cell proliferation, Cell-Titer-Glo)
Type in all cases: cell-based
H526 cells = conditions: Homo sapiens, 120 h; NCI-H526 cells; Cell-Titer-Glo after five days; Table 2b; read-out: In vitro cell killing (IC50 (nM)) NCI-H526
JimT1 cells = conditions: Homo sapiens, JIMT-1, 120 h; JimT1 cells; Cell-Titer-Glo after five days; Table 2b; read-out: In vitro cell killing (IC50 (nM)) JimT1
A375 cells = conditions: Homo sapiens, A-375, 120 h, Cell-Titer-Glo after five days
Procedure: (§1) For evaluation of the cell killing potency of the cytotoxic peptides of Formula (I) in vitro, cell proliferation assays were performed in parallel with 8 cell lines: MDA-MB231 clone 16, clone 40, JimT1, HCC1954, H526, KU812, CMK11-5 cells and Jurkat cells. In addition, in vitro, cell proliferation assays were performed using 3 other cell lines: A375, SKBR3 and NCI-N87. All the cell lines are described in more detail in Example 106 and were also used to assess the in vitro potency of immunoconjugates of the invention. The cell proliferation assays were conducted with Cell-Titer-Glo™ (Promega) five days after cells were incubated with various concentrations of ADCs (Riss et al., (2004) Assay Drug Dev Technol. 2:51-62).

NCI-N87 cells = conditions: Homo sapiens, 120 h, Cell-Titer-Glo after five days
Procedure: as §1

SKBR3 cells = conditions: Homo sapiens, SK-BR-3, 120 h, Cell-Titer-Glo after five days
Procedure: as §1

HCC1954 cells = conditions: Homo sapiens, 120 h; HCC1954 cells; Cell-Titer-Glo after five days; Table 2b; read-out: In vitro cell killing (IC50 (nM)) HCC1954

| SMILES | IC50 (H526 cells) [nM] | IC50 (JimT1 cells) [nM] | IC50 (A375 cells) [nM] | IC50 (NCI-N87 cells) [nM] | IC50 (SKBR3 cells) [nM] | IC50 (HCC1954 cells) [nM] |
| --- | --- | --- | --- | --- | --- | --- |
| CC[C@H](C)[C@@H]([C@@H](CC(=O)N1CCC[C@H]1[C@H](OC)[C@@H](C)C(=O)N[C@H](CO)Cc1ccccc1)OC)N(C)C(=O)[C@@H](NC(=O)[C@H]1N[C@@H]2CC[C@H]1C2)C(C)C [Compound 50, (1R,3S,4S)-N-((S)-1-(((3R,4S,5S)-1-((S)-2-((1R,2R)-3-(((S)-1-Hydroxy-3-phenylpropan-2-yl)amino)-1-methoxy-2-methyl-3-oxopropyl)pyrrolidin-1-yl)-3-methoxy-5-methyl-1-oxoheptan-4-yl)(methyl)amino)-3-methyl-1-oxobutan-2-yl)-2-azabicyclo[2.2.1]heptane-3-carboxamide] (H-[X1]V[Dil][Dolaproine][Phe(ol)]) | 52.4 | 57.6 | 5.16 | 10.2 | 5.66 |  |
| CC[C@H](C)[C@@H]([C@@H](CC(=O)N1CCC[C@H]1[C@H](OC)[C@@H](C)C(=O)N[C@H](CO)Cc1ccccc1)OC)N(C)C(=O)[C@@H](NC(=O)[C@@H]1[C@H]2CC[C@H](C2)N1C)C(C)C [Compound 51, (1R,3S,4S)-N-((S)-1-(((3R,4S,5S)-1-((S)-2-((1R,2R)-3-(((S)-1-Hydroxy-3-phenylpropan-2-yl)amino)-1-methoxy-2-methyl-3-oxopropyl)pyrrolidin-1-yl)-3-methoxy-5-methyl-1-oxoheptan-4-yl)(methyl)amino)-3-methyl-1-oxobutan-2-yl)-2-methyl-2-azabicyclo[2.2.1]heptane-3-carboxamide] (X2-V[Dil][Dolaproine][Phe(ol)]) | 0.184 | 0.081 | 0.154 | 0.053 | 0.035 | 0.028 |
| CC[C@H](C)[C@@H]([C@@H](CC(=O)N1CCC[C@H]1[C@H](OC)[C@@H](C)C(=O)N[C@H](CO)Cc1cccc(N)c1)OC)N(C)C(=O)[C@@H](NC(=O)[C@@H]1[C@H]2CC[C@H](C2)N1C)C(C)C [Compound 52, (1R,3S,4S)-N-((S)-1-(((3R,4S,5S)-1-((S)-2-((1R,2R)-3-(((S)-1-(3-Aminophenyl)-3-hydroxypropan-2-yl)amino)-1-methoxy-2-methyl-3-oxopropyl)pyrrolidin-1-yl)-3-methoxy-5-methyl-1-oxoheptan-4-yl)(methyl)amino)-3-methyl-1-oxobutan-2-yl)-2-methyl-2-azabicyclo[2.2.1]heptane-3-carboxamide] |  |  | 0.923 | 0.068 | 0.046 | 0.019 |
| CC[C@H](C)[C@@H]([C@@H](CC(=O)N1CCC[C@H]1[C@H](OC)[C@@H](C)C(=O)N[C@@H](Cc1ccccc1)CS(N)(=O)=O)OC)N(C)C(=O)[C@@H](NC(=O)[C@@H]1[C@H]2CC[C@H](C2)N1C)C(C)C [Compound 55, (1R,3S,4S)-N-((S)-1-(((3R,4S,5S)-3-methoxy-1-((S)-2-((1R,2R)-1-methoxy-2-methyl-3-oxo-3-(((S)-1-phenyl-3-sulfamoylpropan-2-yl)amino)propyl)pyrrolidin-1-yl)-5-methyl-1-oxoheptan-4-yl)(methyl)amino)-3-methyl-1-oxobutan-2-yl)-2-methyl-2-azabicyclo[2.2.1]heptane-3-carboxamide] | 0.364 | 0.751 | 2.75 | 0.643 | 0.21 | 0.124 |
| CC[C@H](C)[C@@H]([C@@H](CC(=O)N1CCC[C@H]1[C@H](OC)[C@@H](C)C(=O)N[C@@H](Cc1ccccc1)c1nc(-c2ccccc2)c[nH]1)OC)N(C)C(=O)[C@@H](NC(=O)[C@H]1N[C@@H]2CC[C@H]1C2)C(C)C [Compound 57, (1R,3S,4S)-N-((S)-1-(((3R,4S,5S)-3-Methoxy-1-((S)-2-((1R,2R)-1-methoxy-2-methyl-3-oxo-3-(((S)-2-phenyl-1-(5-phenyl-1H-imidazol-2-yl)ethyl)amino)propyl)pyrrolidin-1-yl)-5-methyl-1-oxoheptan-4-yl)(methyl)amino)-3-methyl-1-oxobutan-2-yl)-2-azabicyclo[2.2.1]heptane-3-carboxamide] | 1.11 | 0.307 | 0.049 | 0.019 | 0.034 |  |
| CC[C@H](C)[C@@H]([C@@H](CC(=O)N1CCC[C@H]1[C@H](OC)[C@@H](C)C(=O)N[C@H](COC)Cc1ccccc1)OC)N(C)C(=O)[C@@H](NC(=O)[C@H]1N[C@@H]2CC[C@H]1C2)C(C)C [Compound 58, (1R,3S,4S)-N-((S)-1-(((3R,4S,5S)-3-Methoxy-1-((S)-2-((1R,2R)-1-methoxy-3-(((S)-1-methoxy-3-phenylpropan-2-yl)amino)-2-methyl-3-oxopropyl)pyrrolidin-1-yl)-5-methyl-1-oxoheptan-4-yl)(methyl)amino)-3-methyl-1-oxobutan-2-yl)-2-azabicyclo[2.2.1]heptane-3-carboxamide] | 4.08 | 2.15 | 0.304 | 0.31 | 0.307 |  |
| CC[C@H](C)[C@@H]([C@@H](CC(=O)N1CCC[C@H]1[C@H](OC)[C@@H](C)C(=O)N[C@@H](Cc1ccccc1)c1cc[nH]n1)OC)N(C)C(=O)[C@@H](NC(=O)[C@H]1N[C@@H]2CC[C@H]1C2)C(C)C [Compound 59, (1R,3S,4S)-N-((S)-1-(((3R,4S,5S)-3-Methoxy-1-((S)-2-((1R,2R)-1-methoxy-2-methyl-3-oxo-3-(((S)-2-phenyl-1-(1H-pyrazol-3-yl)ethyl)amino)propyl)pyrrolidin-1-yl)-5-methyl-1-oxoheptan-4-yl)(methyl)amino)-3-methyl-1-oxobutan-2-yl)-2-azabicyclo[2.2.1]heptane-3-carboxamide] | 19.5 | 37.5 | 3.55 | 4.78 | 3.12 |  |
| CC[C@H](C)[C@@H]([C@@H](CC(=O)N1CCC[C@H]1[C@H](OC)[C@@H](C)C(=O)N[C@@H](Cc1ccccc1)c1ncccn1)OC)N(C)C(=O)[C@@H](NC(=O)[C@H]1N[C@@H]2CC[C@H]1C2)C(C)C [Compound 60, (1R,3S,4S)-N-((S)-1-(((3R,4S,5S)-3-Methoxy-1-((S)-2-((1R,2R)-1-methoxy-2-methyl-3-oxo-3-(((S)-2-phenyl-1-(pyrimidin-2-yl)ethyl)amino)propyl)pyrrolidin-1-yl)-5-methyl-1-oxoheptan-4-yl)(methyl)amino)-3-methyl-1-oxobutan-2-yl)-2-azabicyclo[2.2.1]heptane-3-carboxamide] | 8.35 | 4.82 | 0.45 | 0.801 | 0.591 |  |
| CC[C@H](C)[C@@H]([C@@H](CC(=O)N1CCC[C@H]1[C@H](OC)[C@@H](C)C(=O)N[C@H](Cc1ccccc1)c1ncccn1)OC)N(C)C(=O)[C@@H](NC(=O)[C@H]1N[C@@H]2CC[C@H]1C2)C(C)C [Compound 61, (1R,3S,4S)-N-((S)-1-(((3R,4S,5S)-3-methoxy-1-((S)-2-((1R,2R)-1-methoxy-2-methyl-3-oxo-3-(((R)-2-phenyl-1-(pyrimidin-2-yl)ethyl)amino)propyl)pyrrolidin-1-yl)-5-methyl-1-oxoheptan-4-yl)(methyl)amino)-3-methyl-1-oxobutan-2-yl)-2-azabicyclo[2.2.1]heptane-3-carboxamide] | 60.6 | 66 | 5.43 | 13.5 | 6.1 |  |
| CC[C@H](C)[C@@H]([C@@H](CC(=O)N1CCC[C@H]1[C@H](OC)[C@@H](C)C(=O)N[C@H](COC)Cc1cccc(N)c1)OC)N(C)C(=O)[C@@H](NC(=O)[C@@H]1[C@H]2CC[C@H](C2)N1C)C(C)C [Compound 72, (1R,3S,4S)-N-((S)-1-(((3R,4S,5S)-1-((S)-2-((1R,2R)-3-(((S)-1-(3-Aminophenyl)-3-methoxypropan-2-yl)amino)-1-methoxy-2-methyl-3-oxopropyl)pyrrolidin-1-yl)-3-methoxy-5-methyl-1-oxoheptan-4-yl)(methyl)amino)-3-methyl-1-oxobutan-2-yl)-2-methyl-2-azabicyclo[2.2.1]heptane-3-carboxamide] | 0.287 | 0.224 | 0.189 |  | 0.085 | 0.079 |
| CC[C@H](C)[C@@H]([C@@H](CC(=O)N1CCC[C@H]1[C@H](OC)[C@@H](C)C(=O)N[C@H](C)[C@@H](O)c1ccccc1)OC)N(C)C(=O)[C@@H](NC(=O)[C@@H]1[C@H]2CC[C@H](C2)N1C)C(C)C [Compound 74, (1R,3S,4S)-N-((S)-1-(((3R,4S,5S)-1-((S)-2-((1R,2R)-3-(((1S,2R)-1-Hydroxy-1-phenylpropan-2-yl)amino)-1-methoxy-2-methyl-3-oxopropyl)pyrrolidin-1-yl)-3-methoxy-5-methyl-1-oxoheptan-4-yl)(methyl)amino)-3-methyl-1-oxobutan-2-yl)-2-methyl-2-azabicyclo[2.2.1]heptane-3-carboxamide] | 0.962 | 0.587 | 0.571 |  | 0.351 | 0.27 |
